Several values for one entry are separate records, joined by “and”; a condition that tells them apart may be missing. Identical values can stand only once.
Assays:
[1] = test system: myeloma cell line (Sp2/0); experiment: Fermentation in dialysis mode, 1000 L production bioreactor, with addition of citrate; format: cell-based
Excerpt: The cells of a myeloma cell line (Sp2/0) were thawed and expanded up to 2 L in spinner flasks over a period of approximately 14 days for the inoculation of a 10 L bioreactor. After 2 to 4 days the cells were split or transferred to a 100 L bioreactor and further cultivated for 2 to 4 days. The 100 L bioreactor served as inoculum for the 1000 L production bioreactor. For each inoculum step a starting cell density of about 0.2 to about 0.4×10^6 viable cells per mL was used.
The production bioreactor ran in a dialysis mode. The bioreactor was a stirred tank reactor with a working volume of about 900 to about 1300 L. Aeration was performed by sparging. The following process parameters were controlled: pH, temperature, pO^2, pressure and agitation rate. The bioreactor was equipped for dialysis mode with hollow fibre cartridges. The cartridges were connected to an external loop with a dialysis medium reservoir. The dialysis of the culture was started 2 to 4 days after inoculation. During fermentation the reservoir was repeatedly filled up with fresh dialysis medium. Some medium components were fed as separate sterile solutions to the bioreactor. These comprise glucose, amino acids, vitamins, and trace elements.
Fermentation was terminated after a maximum of 16 days.
The citrate was added to the fermentation medium and to the dialysis medium.

[2] = test system: myeloma cell line (Sp2/0); experiment: Fermentation in fed batch mode, 10 L bioreactor, with addition of citrate; format: cell-based; conditions: 2.4 mmol/L citrate, 10 L scale, single runs and mean
Procedure: The cells of a myeloma cell line were thawed (Sp2/0) and expanded up to 2 L in spinner flasks for the inoculation of a 10 L bioreactor. The production bioreactor ran in a fed batch mode. The bioreactor was a stirred tank reactor with a working volume of from about 9 to about 13 L. Aeration was performed by sparging. The following process parameters were controlled: pH, temperature, pO2, pressure and agitation rate. Feeding of the culture was started 2 to 4 days after inoculation. Components including glucose, amino acids, vitamins, and trace elements were fed as separate sterile solutions to the bioreactor. Fermentation was terminated after maximum of 10 days.

SMILES: O=C(O)CC(O)(CC(=O)O)C(=O)O [Citrate]
- Amount of alkali required to adjust a constant pH value reduced to, % of the control [1]: about 34%
- Reduction of the specific consumption rate for glucose ([1]; 1000 L scale, versus runs without citrate, printed 'reduced ... about 44%'): about 44%
- Specific consumption rate of glucose [2]: 443 μg/10^6 cells x day and 715 μg/10^6 cells x day and 451 μg/10^6 cells x day
- Specific production rate of lactate [2]: 230 μg/10^6 cells x day and 392 μg/10^6 cells x day and 304 μg/10^6 cells x day
- Specific consumption rate of glucose ([2]; mean): 536 μg/10^6 cells x day

— patent US7390660B2, “Methods for growing mammalian cells in vitro” (Hoffman-La Roche Inc., priority 2002, dated 2008)
